Reference: patent US6172079A, “5-substituted-3-oxadiazolyl-1,6-naphthyridin-2(1H)-one derivatives” (Dainippon Pharmaceutical Co., Ltd., priority 1997, dated 2001)
pIC50: −log10 of the molar value.

Columns and labels:
GABAA receptor = details: background statement; cited from earlier work
[1] = system: ddY male mice (pentylentetrazol-induced convulsion); assay: Test of Increasing Activity on Pentylentetrazol-induced Convulsion; type: in vivo; details: Mus musculus, 0.5 h, po, pentylentetrazol 70 mg/kg s.c. 15 min later, read-out: Effects (number of animals) with increased pentylentetrazol-induced convulsion (converted)
Protocol: It is known that benzodiazepine receptor inverse agonists increase convulsion induced by pentylentetrazol [cf. Progress in Neuro-Psychopharmacology and Biological Psychiatry, vol. […] Some compounds of the present invention were tested as to the activities of increasing the pentylentetrazol-induced convulsion.
A test compound (compounds disclosed in working examples) was orally administered to ddY male mice (weight; 22-25 g, five mice/group) in an amount of 5-100 mg/kg. […] The effects were evaluated by the number of mice among five mice, of which the convulsion increasing effects were observed.

[2] = system: GABAA receptor complex (TBPS binding); assay: TBPS Binding Assay; set-up: species or system Wistar rats; details: [35S]TBPS 0.4 nM, GABA 1 μM, rat cerebral cortex membrane, +% inverse agonistic, 0% antagonistic
Protocol: The TBPS (t-butylbicyclophosphonothionate) binding assay and the preparation of the membrane specimen were done in a similar manner to the method of Biggio, G. et al. [cf. European Journal of Pharmacology, vol.
That is, to the cerebral cortex was added a 50-fold volume of an ice-cooled buffer (a 50 mM Tris-citrate buffer containing 100 mM sodium chloride, pH 7.4) and the mixture was homogenized at 0-4° C. and then centrifuged at 20,000 g for 20 minutes. The pellets thus obtained were once subjected to homogenization in a buffer and centrifugation by the same procedure as above and then kept in freezed state at -80° C. for more than 20 hours. On the test day, the freezed pellets were thawed and then subjected twice to the homogenization-centrifugation procedure as described above.
Subsequently, the filter was moved into a liquid scintillation vial and thereto was added a liquid scintillation cocktail (ACS-II, manufactured by Amersham, USA, 10 ml) and allowed to stand for a fixed period of time. […] Separately, the same procedures were repeated in the presence of Picrotoxin to determine the non-specific binding amount. The non-specific binding amount was deducted from the total binding amount to give the specific binding amount. The binding activity of the test compound was calculated by a variation rate, i.e., a rate of the specific binding amount of the test compound to the specific binding amount in control (using a solvent).

benzodiazepine receptor = assay: Benzodiazepine Receptor Binding Assay; details: read-out: BZP-receptor Binding IC50; [3H]-diazepam 1.5 nM; rat brain crude synaptosome membrane; 0° C., 20 min

Row | Compound | responders at 10 mg/kg [1] [%] | TBPS binding Variation Rate [2] [%] | pIC50 (benzodiazepine receptor) | other results
1 | CCc1c(C(=O)OC)ncc2[nH]c3cc(OC)c(OC)cc3c12 [DMCM, methyl-6,7-dimethoxy-4-ethyl-β-carboline-3-carboxylate] | – | – | – | uptake of Cl ion into cells (GABAA receptor): increased
2 | Cc1nc(-c2cc3c(-c4ccccc4)nccc3[nH]c2=O)no1 [Example 4] | 80 | 20 | 8.78 | –
3 | Cc1nc(-c2cc3c(-c4cccc(F)c4)nccc3[nH]c2=O)no1 [Example 5] | – | 21 | 8.79 | responders at 5 mg/kg ([1]; 5 mg/kg): 100%
4 | Cc1nc(-c2cc3c(-c4ccc(F)cc4)nccc3[nH]c2=O)no1 [Example 6] | – | 15 | 8.53 | responders at 100 mg/kg [1]: 80%
5 | COc1ccc(-c2nccc3[nH]c(=O)c(-c4noc(C)n4)cc23)cc1 [Example 11, 3-(5-Methyl-1,2,4-oxadiazol-3-yl)-5-(4-methoxyphenyl)-1,6-naphthyridin-2(1H)-one] | 80 | 21 | 8.01 | –
6 | CCc1nc(-c2cc3c(C4CC4C)nccc3[nH]c2=O)no1 (centres unmarked) [Example 18, 3-(5-Ethyl-1,2,4-oxadiazol-3-yl)-5-(2-methylcyclopropyl)-1,6-naphthyridin-2(1H)-one] | – | 10 | 8.69 | responders at 20 mg/kg [1]: 60%
7 | COc1cccc(-c2nccc3[nH]c(=O)c(-c4noc(C)n4)cc23)c1 [Example 86, 3-(5-methyl-1,2,4-oxadiazol-3-yl)-5-(3-methoxyphenyl)-1,6-naphthyridin-2(1H)-one] | 40 | 12 | 8.66 | –
8 | Cc1nc(-c2cc3c(-c4ccccc4Cl)nccc3[nH]c2=O)no1 [Example 88] | 100 | 41 | 8.33 | –
9 | Cc1nc(-c2cc3c(-c4ccccc4C)nccc3[nH]c2=O)no1 [Example 89, 3-(5-Methyl-1,2,4-oxadiazol-3-yl)-5-(2-methylphenyl)-1,6-naphthyridin-2(1H)-one] | – | 22 | 7.98 | responders at 50 mg/kg [1]: 100%
10 | Cc1nc(-c2cc3c(-c4ccncc4)nccc3[nH]c2=O)no1 [Example 94, 3-(5-Methyl-1,2,4-oxadiazol-3-yl)-5-(4-pyridyl)-1,6-naphthyridin-2(1H)-one] | – | 34 | 8.35 | responders at 50 mg/kg [1]: 80%
11 | CCc1nc(-c2cc3c(-c4ccco4)nccc3[nH]c2=O)no1 [Example 102] | 100 | 33 | 9.09 | –
12 | CCc1nc(-c2cc3c(-c4cccs4)nccc3[nH]c2=O)no1 [Example 103, 3-(5-Ethyl-1,2,4-oxadiazol-3-yl)-5-(2-thienyl)-1,6-naphthyridin-2(1H)-one] | 40 | 21 | 9.08 | –
13 | CCc1nc(-c2cc3c(-c4ccsc4)nccc3[nH]c2=O)no1 [Example 105] | – | 25 | 8.97 | responders at 50 mg/kg [1]: 80%
14 | CCc1noc(-c2cc3c(-c4cccs4)nccc3[nH]c2=O)n1 [Example 173, 3-(3-ethyl-1,2,4-oxadiazol-5-yl)-5-(2-thienyl)-1,6-naphthyridin-2(1H)-one] | – | 18 | 9.03 | responders at 20 mg/kg [1]: 100%
15 | Cc1cccc(-c2nccc3[nH]c(=O)c(-c4nc(C)no4)cc23)c1 [Example 183, 3-(3-Methyl-1,2,4-oxadiazol-5-yl)-5-(3-methylphenyl)-1,6-naphthyridin-2(1H)-one] | – | 8 | 8.81 | responders at 20 mg/kg [1]: 80%
16 | Cc1ccc(-c2nccc3[nH]c(=O)c(-c4nc(C)no4)cc23)cc1 [Example 184] | – | 17 | – | responders at 50 mg/kg [1]: 100%
17 | COc1cccc(-c2nccc3[nH]c(=O)c(-c4nc(C)no4)cc23)c1 [Example 186, 3-(3-Methyl-1,2,4-oxadiazol-5-yl)-5-(3-methoxyphenyl)-1,6-naphthyridin-2(1H)-one] | – | 21 | 8.81 | responders at 50 mg/kg [1]: 80%
18 | CCc1noc(-c2cc3c(C)nccc3[nH]c2=O)n1 [Example 191, 3-(3-Ethyl-1,2,4-oxadiazol-5-yl)-5-methyl-1,6-naphthyridin-2(1H)-one] | 100 | 18 | – | –
19 | CCCc1nccc2[nH]c(=O)c(-c3nc(CC)no3)cc12 [Example 192] | – | 13 | 8.37 | responders at 100 mg/kg [1]: 100%
20 | CCc1noc(-c2cc3c(-c4cccc(F)c4)nccc3[nH]c2=O)n1 [Example 200, 3-(3-Ethyl-1,2,4-oxadiazol-5-yl)-5-(3-fluorophenyl)-1,6-naphthyridin-2(1H)-one] | – | 17 | 9.04 | responders at 50 mg/kg [1]: 80%
21 | CCc1noc(-c2cc3c(-c4ccc(OC)cc4)nccc3[nH]c2=O)n1 [Example 210, 3-(3-Ethyl-1,2,4-oxadiazol-5-yl)-5-(4-methoxyphenyl)-1,6-naphthyridin-2(1H)-one] | 80 | 15 | 8.47 | –
22 | CCc1noc(-c2cc3c(-c4ccncc4)nccc3[nH]c2=O)n1 [Example 213, 3-(3-Ethyl-1,2,4-oxadiazol-5-yl)-5-(4-pyridyl)-1,6-naphthyridin-2(1H)-one] | 100 | 26 | 8.68 | –
23 | O=c1[nH]c2ccnc(-c3ccsc3)c2cc1-c1nc(C2CC2)no1 [Example 247, 3-(3-Cyclopropyl-1,2,4-oxadiazol-5-yl)-5-(3-thienyl)-1,6-naphthyridin-2(1H)-one] | – | 16 | 8.86 | responders at 50 mg/kg [1]: 80%
24 | CNC(=O)c1cc2c(cn1)[nH]c1ccccc12 [FG7142, N-methyl-β-carboline-3-carboxamide] | – | – | – | uptake of Cl ion into cells (GABAA receptor): increased
25 | NCc1cc(=O)[nH]o1 [Muscimol] | – | – | – | uptake of Cl ion into cells (GABAA receptor): decreased
26 | O=C1CN=C(c2ccccc2Cl)c2cc([N+](=O)[O-])ccc2N1 [chlonazepam] | – | – | – | uptake of Cl ion into cells (GABAA receptor): decreased
